pIC50: −log10 of the molar value.
molecular target: T1, Aldo-keto reductase family 1 member B1 (Homo sapiens, UniProt P15121); assay: Compound was evaluated for inhibition of human placental aldose reductase (HPAR) activity with glyceraldehyde as substrate

| pIC50 | SMILES |
| --- | --- |
| 6.60 | C[S+]([O-])c1ccc(Cl)cc1C1NC(=O)NC1=O (centres undefined) |
| 7.30 | CS(=O)(=O)c1ccc(Cl)cc1C1NC(=O)NC1=O (centres undefined) |
| 6.15 | CCCCNS(=O)(=O)c1ccc(Cl)cc1C1NC(=O)NC1=O (centres undefined) |

molecular target: T1, Aldo-keto reductase family 1 member B1; assay: Inhibition of human placental aldose reductase (HPAR) activity with glyceraldehyde as substrate

| SMILES | pIC50 |
| --- | --- |
| CCCCCS(=O)(=O)c1ccc(Cl)cc1C1NC(=O)NC1=O (centres undefined) | 7.30 |
| O=C1NC(=O)C(c2cc(Cl)ccc2S(=O)(=O)NCCCc2ccccc2)N1 (centres undefined) | 7.00 |
| O=C1NC(=O)C(c2cc(Cl)ccc2S(=O)(=O)Cc2ccc(Cl)cc2)N1 (centres undefined) | 6.57 |
| CCCS(=O)(=O)c1ccc(Cl)cc1C1NC(=O)NC1=O (centres undefined) | 6.60 |
| CC(C)S(=O)(=O)c1ccc(Cl)cc1C1NC(=O)NC1=O (centres undefined) | 6.42 |
| COc1ccc(Cl)cc1C1NC(=O)NC1=O (centres undefined) | 5.41 |
| O=C1NC(=O)C(c2cc(Cl)ccc2S(=O)(=O)NCc2ccccc2)N1 (centres undefined) | 7.52 |
| O=C1NC(=O)C(c2cc(Cl)ccc2S(=O)(=O)Nc2ccc(F)cc2)N1 (centres undefined) | 6.64 |
| CS(=O)(=O)c1c(C2NC(=O)NC2=O)cc(Cl)cc1C(F)(F)F (centres undefined) | 6.24 |
| O=C1NC(=O)C(c2cc(Cl)ccc2SCc2ccc(Cl)cc2)N1 (centres undefined) | 5.92 |
| CN(C)S(=O)(=O)c1ccc(Cl)cc1C1NC(=O)NC1=O (centres undefined) | 5.35 |
| CCCCCCS(=O)(=O)c1ccc(Cl)cc1C1NC(=O)NC1=O (centres undefined) | 6.64 |
| CCS(=O)(=O)c1ccc(Cl)cc1C1NC(=O)NC1=O (centres undefined) | 6.74 |
| O=C1NC(=O)C(c2cc(Cl)ccc2S(=O)(=O)NCCc2ccccc2)N1 (centres undefined) | 5.90 |
| NS(=O)(=O)c1ccc(Cl)cc1C1NC(=O)NC1=O (centres undefined) | 6.82 |
| O=C1NC(=O)C(c2cc(Cl)ccc2S(=O)(=O)CCc2ccc(Cl)cc2)N1 (centres undefined) | 6.66 |

The next lines start with the values.

| pIC50 | SMILES |
| --- | --- |
| 5.25 | O=C1NC(=O)C(c2cc(Cl)ccc2S(=O)(=O)NCCCCc2ccccc2)N1 (centres undefined) |
| 6.21 | CS(=O)(=O)c1c(Cl)cc(Cl)cc1C1NC(=O)NC1=O (centres undefined) |
| 6.89 | CNS(=O)(=O)c1ccc(Cl)cc1C1NC(=O)NC1=O (centres undefined) |
| 6.21 | CSc1ccc(Cl)cc1C1NC(=O)NC1=O (centres undefined) |
| 6.33 | O=C1NC(=O)C(c2cc(Cl)ccc2[S+]([O-])Cc2ccc(Cl)cc2)N1 (centres undefined) |
| 6.57 | Cc1cc(Cl)cc(C2NC(=O)NC2=O)c1S(C)(=O)=O (centres undefined) |
| 5.13 | COc1ccc(F)cc1C1NC(=O)NC1=O (centres undefined) |
| 6.21 | CS(=O)(=O)c1ccc(F)cc1C1NC(=O)NC1=O (centres undefined) |
| 6.24 | CCCNS(=O)(=O)c1ccc(Cl)cc1C1NC(=O)NC1=O (centres undefined) |
| 6.72 | CCCCCNS(=O)(=O)c1ccc(Cl)cc1C1NC(=O)NC1=O (centres undefined) |
